Source: US20060063938A1, “Compounds to treat hiv infection and aids” (priority 2001, published 2006)
Where “and” joins values, the source holds several entries; their conditions need not be identical. Equal entries are not always repeated. Entries after “also recorded” stand apart in the source; their conditions may differ. Where two headings read alike, the source gives them in different places.

How the values were obtained:
[1] = molecular target: HIV-1 integrase (Human immunodeficiency virus type 1 group M subtype B, UniProt P04585); test: In vitro HIV-1 integrase assay (3′-processing and strand transfer) with 21-mer U5 LTR oligonucleotide; type: biochemical
[2] = tested on: HIV-1; test: microbe, parasite or virus in culture; type: cell-based; conditions: for IC50: read-out: 50% Inhibitory Conc. (IC50)
[3] = tested on: replication competent HIV-1; test: Inhibition of replication competent HIV-1 in H9 cells, p24 antigen ELISA; type: cell-based; conditions: 25 μM B compound, 15 days
Experimental: FIG. 6. Determination of inhibition of replication competent HIV-1 by B compound. HIV-1 infection was carried out in the presence of 25 μM B compound, 100 nM AZT, or in the absence of any drugs. Uninfected H9 culture was used as a negative control. […] Each time point of each culture was evaluated in duplicate.
Inhibition of replication competent HIV-1 by B compound was evaluated at 25 μM concentration. 293T cells were transfected with pNL4-3, a plasmid that encodes full HIV-1 genome. Virus harvested from the transfected cells was used to infect H9 target cells. […] In addition, H9 infected cells were cultured in the presence of 100 nM AZT as a control.
H9 T-lymphoid cells (ATCC) were maintained in the presence of RPMI 1640 Medium (Cellgro), 20% fetal calf serum (HyClone Laboratories), penicillin (50 U/ml; Gibco) and streptomycin (50 μg/ml; Gibco), 2 μg/ml Polybrene (Sigma). […] After 4 hours of infection, H9 cells were washed, resuspended in 2 ml of cell culture medium containing an appropriate drug and maintained in 35-mm-diameter dish. Cultures were fed every 3 days by removing 1 ml of cell culture suspension and replacing with equivalent amount of fresh medium containing an appropriate drug.

[4] = tested on: HIV-1; conditions: read-out: IC50 reported previously; Hazuda et al. 2000; cited from earlier work
[5] = tested on: 293T cells; test: Cell proliferation inhibition (XTT) cell toxicity assay; type: cell-based
Experimental: To ensure that inhibition of luciferase activity in the presence of the compounds was indeed due to inhibition of HIV-1 infection and not due to the toxicity of these compounds to the target cells, we performed a cell toxicity assay in the presence of the same concentrations of compounds that were used for IC50 determination (FIG. 5).
Cell proliferation inhibition assay. The effects of inhibitors on cell toxicity were determined by using Cell Proliferation Kit II (XTT) (Roche Molecular Biochemicals). Target cells (293T) were plated at a density of 1×10^3 per well of 96-well plate. Twenty-four hours later cells were treated with an inhibitor for 36 hours. After inhibitor was removed, cells were incubated for additional 48 hours and then were stained with 50 μL of the XTT labeling mix per well (Roche Molecular Biochemicals). Spectrophotometrical absorbance of the samples was measured 4 hours after addition of the labeling mix at wavelengths of 450 nm with a reference point at 700 nm in a 96-well plate reader.

[6] = 3′-processing step of integration reaction, read-out: IC50 3′-Processing
[7] = strand transfer step of integration reaction, read-out: IC50 Strand transfer
[8] = Human immunodeficiency virus 1, HEK-293T

Row | SMILES | IC50 [1, 6] | IC50 [1, 7] | Luciferase Activity Relative to No Drug Control (Avg ± S.E.) [2] | further results
1 | COc1ccc(Cn2nnnc2C(O)=CC(=O)c2c[nH]c3ccccc23)cc1 [Compound P23, reference compound] | > 100 µM | 6.9 µM | 104 ± 25% | 
2 | O=C(C=C(O)c1nnn[nH]1)c1c[nH]c2ccc(F)cc12 [Compound P31, reference compound] |  |  | 61 ± 17% | IC50 ([1]; 3′-processing step of integration reaction, listed as 14, read-out: IC50 3′-Processing): 82 µM; IC50 ([1]; strand transfer step of integration reaction, listed as 14, read-out: IC50 Strand transfer): 6.56 ± 0.81 µM
3 | O=C(O)C(O)=CC(=O)c1cccc(C(=O)c2ccccc2)c1 [Compound I] | > 100 µM |  | 19 ± 2% | IC50 ([1]; strand transfer step of integration reaction, listed as 19, read-out: IC50 Strand transfer): 2.7 µM and 2.1 µM
4 | [N-]=[N+]=NCc1cccc(C(=O)C=C(O)C(=O)O)c1 [Compound B, 4-(3-azidomethyl-phenyl)-2-hydroxy-4-oxo-but-2-enoic acid] | > 100 µM | 1.53 ± 0.27 µM | 15 ± 7% | HIV-1 replication (p24 antigen) in infected H9 culture [3]: no significant amounts of HIV-1 replication was detected; also recorded: strongly inhibited replication competent HIV-1; IC50 [2, 8]: 0.5 µM
5 | [N-]=[N+]=NCc1cc(CN=[N+]=[N-])cc(C(=O)/C=C(\O)C(=O)O)c1 [Compound A, 4-(3,5-bis-azidomethyl-phenyl)-2-hydroxy-4-oxo-but-2-enoic acid] | > 100 µM | 2 µM and 2.8 µM | 5 ± 6% | IC50 [2, 8]: 1.6 µM
6 | COc1ccc(Cn2nnnc2C(O)=CC(=O)c2c[nH]c3ccc(Cl)cc23)cc1 [Compound P20, reference compound] |  | 1.28 ± 0.38 µM | 133 ± 35% | IC50 ([1]; 3′-processing step of integration reaction, listed as 10, read-out: IC50 3′-Processing): 7.2 µM and 7.5 µM
7 | O=C(C=C(O)c1nnn[nH]1)c1c[nH]c2ccccc12 [Compound P4, reference compound] | > 100 µM |  | 116 ± 27% | IC50 ([1]; strand transfer step of integration reaction, listed as 6, read-out: IC50 Strand transfer): 1.9 µM and 2 µM
8 | O=C(C=Cc1ccc(O)c(O)c1)Nc1cccc(C(=O)C=C(O)C(=O)O)c1 [Compound G] | 9 µM | 4.7 µM | 24 ± 8% | IC50 [2]: 2.2 µM
9 | Cc1cc(C)cc(C(=O)C=C(O)C(=O)O)c1 [Compound E] | > 100 µM |  | 99 ± 14% | IC50 ([1]; strand transfer step of integration reaction, listed as 15, read-out: IC50 Strand transfer): 9 µM and 11 µM; antiviral activity in single cycle assay [2]: did not show antiviral activity; also recorded: showed no antiviral activity
10 | COc1ccc(Cn2nnnc2C(O)=CC(=O)c2c[nH]c3ccc(F)cc23)cc1 [Compound P22, reference compound] |  |  | 98 ± 28% | IC50 ([1]; 3′-processing step of integration reaction, listed as 11, read-out: IC50 3′-Processing): 8.1 µM and 5.5 µM; IC50 ([1]; strand transfer step of integration reaction, listed as 11, read-out: IC50 Strand transfer): 2.2 µM and 1.6 µM
11 | O=C(O)C(O)=CC(=O)c1ccc(Oc2ccccc2)cc1 [Compound F] | > 100 µM |  | 261 ± 5% | IC50 ([1]; strand transfer step of integration reaction, listed as 16, read-out: IC50 Strand transfer): 7.8 µM and 15 µM
12 | [N-]=[N+]=NCc1ccc(C(=O)C=C(O)C(=O)O)cc1CN=[N+]=[N-] [Compound C] | > 100 µM |  | 36 ± 7% | IC50 ([1]; strand transfer step of integration reaction, listed as 4, read-out: IC50 Strand transfer): 0.26 µM and 0.15 µM; IC50 [2]: 19 µM
13 | O=C(O)C(O)=CC(=O)c1cc(OCc2ccccc2)cc(OCc2ccccc2)c1 [Compound P10, reference compound] | > 1000 µM | 1.03 ± 0.25 µM | 7% and 7 ± 2% | IC50 [4]: 2.5 µM; effect on 3′-processing step ([1]; concentrations up to the millimolar range): unaffected; IC50 for the strand transfer reaction ([1]; strand transfer): in the micromolar range; IC50 [2]: 2.3 µM
14 | O=C(O)C(O)=CC(=O)c1cccc(OCc2ccccc2)c1 [Compound H] |  | 0.35 ± 0.13 µM | 14 ± 3% | IC50 ([1]; 3′-processing step of integration reaction, listed as 18, read-out: IC50 3′-Processing): 65 µM and 100 µM; IC50 [2]: 0.6 µM
15 | O=C(C=C(O)c1nnn[nH]1)c1c[nH]c2ccc(F)cc12 [Compound P18, reference compound] |  |  | 59 ± 13% | IC50 ([1]; 3′-processing step of integration reaction, listed as 9, read-out: IC50 3′-Processing): 79 µM; IC50 ([1]; strand transfer step of integration reaction, listed as 9, read-out: IC50 Strand transfer): 1.8 µM
16 | [N-]=[N+]=Nc1cccc(C(=O)C=C(O)C(=O)O)c1 [Compound D, 4-(3-azido-phenyl)-2-hydroxy-4-oxo-but-2-enoic acid] | > 100 µM | 5.3 µM and 5.2 µM | 137 ± 12% | concentration giving 50% inhibition of cell proliferation [5]: approximately 19 μM
